Consider seven molecules from US8221991B2, “Orphan nuclear receptor” (priority 1998, dated 2012).

In data set [1] the target is T1, hPXR (Homo sapiens, UniProt O75469).
T1 sequence (O75469 1-434): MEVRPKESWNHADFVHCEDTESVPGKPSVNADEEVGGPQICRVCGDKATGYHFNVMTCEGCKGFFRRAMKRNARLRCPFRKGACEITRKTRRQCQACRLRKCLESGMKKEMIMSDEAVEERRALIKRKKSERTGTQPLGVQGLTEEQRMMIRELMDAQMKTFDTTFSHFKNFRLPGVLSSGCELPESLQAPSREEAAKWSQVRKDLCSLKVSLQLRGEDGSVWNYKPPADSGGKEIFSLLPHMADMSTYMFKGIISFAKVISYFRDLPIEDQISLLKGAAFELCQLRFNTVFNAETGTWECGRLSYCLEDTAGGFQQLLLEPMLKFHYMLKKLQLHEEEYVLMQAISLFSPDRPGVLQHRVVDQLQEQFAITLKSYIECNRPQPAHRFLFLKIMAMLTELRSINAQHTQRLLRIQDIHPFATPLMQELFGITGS
Briefly: Cotransfection assay, pSG5-hPXR ATG with (IR6)3-tk-CAT reporter in CV-1 cells. As to conditions: for activation of hPXR (CAT activity): 1 μM lovastatin, 100 μM phenobarbital, 10 μM of the other compounds. The procedure:
(§1) Cells were treated with 1 μM mevastatin or lovastatin, 100 μM phenobarbital, or 10 μM of the other compounds. Cell extracts were subsequently assayed for CAT activity. […] (FIG. 4C) CARLA was performed with bacterially-expressed GST-hPXR or GST-mPXR1 and [^35S]SRC1.14 synthesized in vitro. […] [^35S]SRC1.14 complexed with GST-hPXR (top panel) or GST-mPXR1 (bottom panel) was precipitated with glutathione-sepharose beads.
(§2) CV-1 cells were plated in 24-well plates in DME medium supplemented with 10% charcoal-stripped fetal calf serum at a density of 1.2×10^5 cells per well. […] Cells were transfected overnight by lipofection using Lipofectamine (Life Technologies, Inc.), according to the manufacturer's instructions. The medium was changed to DME medium supplemented with 10% delipidated calf serum (Sigma) and cells were incubated for an additional 24 hours.
To determine, whether hPXR could regulate transcription through the IR6 motif, a reporter plasmid was generated containing three copies of the CYP3A4 IR6 response element upstream of the tk promoter and CAT gene.
It was next determined whether hPXR might mediate the effects of some or all of these compounds on CYP3A4 expression. CV-1 cells were cotransfected with the pSG5-hPXR ATG expression plasmid and the (IR6)3-tk-CAT reporter plasmid, and the cells were treated with micromolar concentrations of a number of compounds that are known to induce CYP3A gene expression in humans and/or rodents.

For data set [2], the target named is T1, hPXR. As to conditions: CV-1 cells; 10 μM. On the procedure:
FIGS. 1A-1D. […] Cell extracts were subsequently assayed for CAT activity.
as §2

The target in the next data set is mPXR1 (Mus musculus, UniProt O54915). As to conditions: CV-1 cells, (IR6)3-tk-CAT reporter; 10 μM.
The target of data set [3] is T2, GST-mPXR1 (Mus musculus, UniProt O54915).
T2 construct: The LBDs of hPXR and mPXR1 were expressed in E. coli as fusion proteins with glutathione-S-transferase (GST); made in house; host or cells: E. coli
As to conditions: Kliewer et al, Cell 92:73-82 (1998); cited from earlier work.

In the next data set the test system is CYP3A4 gene expression. As to conditions: cited from earlier work.
Another data set relates to CYP3A1 levels. As to conditions: cited from earlier work.
In data set [4] the target is T2, GST-mPXR1. The data set can be described thus: Coactivator-receptor ligand assay (CARLA), GST-mPXR1 with [35S]SRC1.14. The data set is classed as binding. Conditions: 10 μM. The procedure:
as §1
GST-hPXR fusion protein was expressed in BL21(DE3)plysS cells and bacterial extracts prepared by one cycle of freeze-thaw of the cells in Protein Lysis. Buffer containing 10 mM Tris, pH 8.0, 50 mM KCl, 10 mM DTT, and 1% NP-40 followed by centrifugation at 40,000×g for 30 minutes. Glycerol was added to the resulting supernatant to a final concentration of 10%. Lysates were stored at −80° C. [^35S]SRC1.14 was generated using the TNT rabbit reticulocyte system (Promega) in the presence of Pro-Mix (Amersham). Coprecipitation reactions included 25 μl of lysate containing GST-hPXR fusion protein, 25 μl Incubation Buffer (50 mM KCl, 40 mM HEPES pH 7.5, 5 mM β-mercaptoethanol, 1% Tween-20, 1% non-fat dry milk), 5 μl […], and vehicle (1% DMSO) or compounds as indicated. […]

The target of another data set is T3, Biotin-His6-PXR/RXRα (Homo sapiens, UniProt O75469).
T3 sequence (O75469 with tags, fused parts or gaps): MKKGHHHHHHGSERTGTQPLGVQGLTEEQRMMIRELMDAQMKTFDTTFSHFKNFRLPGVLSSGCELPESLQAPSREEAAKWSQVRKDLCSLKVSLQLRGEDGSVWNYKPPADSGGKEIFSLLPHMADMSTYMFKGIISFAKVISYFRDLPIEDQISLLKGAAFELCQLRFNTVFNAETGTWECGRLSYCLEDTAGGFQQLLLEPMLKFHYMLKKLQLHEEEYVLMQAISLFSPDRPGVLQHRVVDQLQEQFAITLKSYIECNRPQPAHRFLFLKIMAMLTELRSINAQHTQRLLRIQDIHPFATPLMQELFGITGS
T3 sequence (P19793 with tags, fused parts or gaps partner limits assumed): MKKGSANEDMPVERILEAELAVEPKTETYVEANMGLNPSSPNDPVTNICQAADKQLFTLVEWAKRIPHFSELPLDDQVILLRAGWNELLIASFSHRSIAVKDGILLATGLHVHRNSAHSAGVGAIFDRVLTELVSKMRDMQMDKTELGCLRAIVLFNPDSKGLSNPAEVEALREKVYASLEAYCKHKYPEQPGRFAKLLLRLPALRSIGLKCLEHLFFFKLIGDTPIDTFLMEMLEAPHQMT
The data set can be described thus: biochemical.

Entries after “also recorded” stand apart in the source; their conditions may differ.

As a reminder, the IC50 is the concentration that gives 50% inhibition.

T2 sequence (O54915 143-430 limits assumed): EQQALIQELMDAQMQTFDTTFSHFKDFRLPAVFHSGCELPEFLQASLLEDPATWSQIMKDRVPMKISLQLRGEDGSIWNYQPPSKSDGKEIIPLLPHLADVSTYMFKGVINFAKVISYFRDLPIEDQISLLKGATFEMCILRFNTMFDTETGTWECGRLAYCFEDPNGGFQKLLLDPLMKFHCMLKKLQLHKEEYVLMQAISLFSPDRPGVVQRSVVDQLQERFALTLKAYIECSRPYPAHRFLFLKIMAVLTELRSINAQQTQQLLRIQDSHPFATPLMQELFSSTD
T2 sequence (Q15788 whole entry partner, the tested form may be a part): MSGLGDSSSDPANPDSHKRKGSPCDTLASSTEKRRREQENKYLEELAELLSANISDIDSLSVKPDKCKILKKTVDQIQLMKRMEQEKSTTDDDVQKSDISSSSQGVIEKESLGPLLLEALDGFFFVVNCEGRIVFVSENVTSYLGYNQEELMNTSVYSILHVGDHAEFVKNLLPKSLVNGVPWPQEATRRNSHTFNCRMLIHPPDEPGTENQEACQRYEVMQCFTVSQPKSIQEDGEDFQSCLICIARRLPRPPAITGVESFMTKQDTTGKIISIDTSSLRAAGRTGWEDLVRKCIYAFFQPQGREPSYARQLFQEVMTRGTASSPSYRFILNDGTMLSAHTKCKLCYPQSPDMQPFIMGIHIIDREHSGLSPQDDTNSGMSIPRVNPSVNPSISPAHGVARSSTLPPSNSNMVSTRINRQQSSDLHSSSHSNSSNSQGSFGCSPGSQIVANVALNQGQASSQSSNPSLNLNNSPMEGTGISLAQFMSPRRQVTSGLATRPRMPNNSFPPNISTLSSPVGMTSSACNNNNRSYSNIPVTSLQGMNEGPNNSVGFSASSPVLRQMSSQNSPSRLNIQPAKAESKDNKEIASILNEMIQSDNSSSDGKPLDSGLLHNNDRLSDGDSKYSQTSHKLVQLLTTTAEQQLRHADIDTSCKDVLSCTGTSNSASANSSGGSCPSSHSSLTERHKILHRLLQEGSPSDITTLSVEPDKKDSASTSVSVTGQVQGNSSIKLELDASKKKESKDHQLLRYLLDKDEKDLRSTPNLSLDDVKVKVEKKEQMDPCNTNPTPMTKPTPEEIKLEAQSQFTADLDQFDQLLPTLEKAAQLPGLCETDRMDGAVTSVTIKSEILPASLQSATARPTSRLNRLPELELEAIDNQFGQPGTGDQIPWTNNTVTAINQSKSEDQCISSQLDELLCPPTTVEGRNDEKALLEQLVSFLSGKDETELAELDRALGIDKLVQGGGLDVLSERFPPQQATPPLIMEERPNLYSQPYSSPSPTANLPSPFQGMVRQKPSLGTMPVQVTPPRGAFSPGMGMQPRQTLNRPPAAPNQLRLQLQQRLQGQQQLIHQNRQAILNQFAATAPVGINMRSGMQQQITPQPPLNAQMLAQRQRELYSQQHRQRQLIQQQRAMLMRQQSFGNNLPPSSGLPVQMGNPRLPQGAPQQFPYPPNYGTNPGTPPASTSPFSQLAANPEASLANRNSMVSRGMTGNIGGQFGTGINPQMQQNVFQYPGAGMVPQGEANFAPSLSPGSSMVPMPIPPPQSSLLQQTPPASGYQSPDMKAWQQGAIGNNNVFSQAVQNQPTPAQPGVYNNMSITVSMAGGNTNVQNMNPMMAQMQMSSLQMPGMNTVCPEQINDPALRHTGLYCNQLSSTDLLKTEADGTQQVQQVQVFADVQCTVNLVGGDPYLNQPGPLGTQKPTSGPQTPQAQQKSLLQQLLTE
Chain of mPXR1 (O54915 whole entry): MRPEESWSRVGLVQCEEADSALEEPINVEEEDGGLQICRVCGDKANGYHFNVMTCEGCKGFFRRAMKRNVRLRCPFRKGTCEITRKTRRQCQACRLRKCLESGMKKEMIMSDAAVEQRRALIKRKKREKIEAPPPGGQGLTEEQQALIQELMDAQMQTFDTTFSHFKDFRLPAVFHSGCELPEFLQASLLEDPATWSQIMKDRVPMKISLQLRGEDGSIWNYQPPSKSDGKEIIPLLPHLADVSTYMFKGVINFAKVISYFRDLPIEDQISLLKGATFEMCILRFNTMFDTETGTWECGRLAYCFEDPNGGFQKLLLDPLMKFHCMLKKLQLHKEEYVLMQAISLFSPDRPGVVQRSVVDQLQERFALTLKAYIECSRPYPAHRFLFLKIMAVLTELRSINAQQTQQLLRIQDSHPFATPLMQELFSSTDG
Description for Biotin-His6-PXR/RXRα: Test compounds were dissolved in DMSO at 10 mM and diluted 1:10 in DMSO before serially diluting in assay buffer. […] Streptavidin-PVT SPA beads (AmershamPharmacia cat 4 RPNQ0007) were resuspended in assay buffer (50 mM Tris HCl pH 8.0, 50 mM KCl, 1 mM DTT, 0.1 mg/ml essentially fatty acid free bovine serum albumin) at 0.5 mg/ml. Biotin-His6-PXR/RXRα was added to the beads to a final concentration of 50 nM. The receptors were allowed to couple to the SPA beads for thirty minutes at room temperature. The uncoupled receptor was removed by centrifuging the SPA beads at 3000 rpm for 5 minutes in a swinging bucket rotor of a Rupp & Bowman Silencer centrifuge. The receptor coated SPA beads were then resuspended in assay buffer to 3.3 mg/ml. […] The total volume in each well was 100 μL. […] The plates were then allowed to incubate at room temperature until equilibrium was obtained, approximately 1.5 hours. The plates were then counted on a TopCount liquid scintillation counter (Packard) using a protocol optimized for ^3H PVT SPA and programmed to correct for color quenching.

Take `CCC1(c2ccccc2)C(=O)NC(=O)NC1=O` [phenobarbital]: at hPXR [1], the “activation of hPXR (CAT activity)” value is “activated; also recorded: more efficacious activators of hPXR than mPXR1”.
Same read-out and setting: under `CC[C@H](C)C(=O)O[C@H]1C[C@@H](C)C=C2C=C[C@H](C)[C@H](CC[C@@H]3C[C@@H](O)CC(=O)O3)[C@H]21` [lovastatin] stands “activated; also recorded: more efficacious activators of hPXR than mPXR1”.
For `C[C@@H]1C[C@H]2[C@@H]3CCC4=CC(=O)C=C[C@]4(C)[C@@]3(F)[C@@H](O)C[C@]2(C)[C@@]1(O)C(=O)COC(=O)CC(C)(C)C` [dexamethasone-t-butylacetate], the “activation of hPXR (CAT activity)” value is reported as “induced reporter levels; also recorded: activated” at hPXR [1] and “most efficacious activators” at hPXR [1] (listed as Dexamethasone-t-butylacetate). Also, the “activation of hPXR (CAT activity), CYP3A1 DR3 PXRE reporter” value on hPXR [2] is on record as “activated efficiently”.
`CC(=O)[C@H]1[C@H](C#N)C[C@H]2[C@@H]3CC=C4C[C@@H](O)CC[C@]4(C)[C@H]3CC[C@@]21C` [PCN]: the “activation of hPXR (CAT activity)” value on hPXR [1] is recorded as “activated”. Besides, the “fold activation of mPXR1” value on mPXR1 was “roughly 9 fold”. The “interaction of the mPXR1 LBD with SRC1.14” value at GST-mPXR1 [3] is on record as “promote the interaction”. In addition, the “induction of CYP3A4 gene expression / CYP3A levels in human hepatocytes” value in the data set with CYP3A4 gene expression is on record as “only modest effects”. Further, in the data set with CYP3A1 levels, the “effect on CYP3A1 / CYP3A levels in rat hepatocytes” value is on record as “marked effects”.
Consider `Clc1ccccc1C(c1ccccc1)(c1ccccc1)n1ccnc1` [clotrimazole], for which the “interaction between GST-mPXR1 and [35S]SRC1.14” value at GST-mPXR1 [4] is reported as “did not”. This molecule returned an IC50 against Biotin-His6-PXR/RXRα of 1300 nM.
For the molecule `ClC1=C(Cl)[C@]2(Cl)[C@H]3[C@H]([C@H](Cl)C(Cl)[C@@H]3Cl)[C@@]1(Cl)C2(Cl)Cl` (stereo partly drawn) [transnonachlor], the “activation of hPXR (CAT activity)” value at hPXR [1] is “activated”.
On to `CC(=O)[C@H]1CC[C@H]2[C@@H]3CC[C@@H]4CC(=O)CC[C@]4(C)[C@H]3CC[C@]12C` [5 β-pregnane-3,20-dione], for which the “fold activation of hPXR” value on hPXR [1] (10 μM) is reported as “roughly 4 fold”. The IC50 at Biotin-His6-PXR/RXRα is 1000 nM.
